Values after ≈ are worked out from the molar mass of the structure shown. One block for each compound: values may come before it.
Tests used:
[1] = target: PD-1 and PD-L1 (Homo sapiens, UniProt Q9NZQ7); conditions: as disclosed in patent CN109988144A; cited from earlier work
[2] = Dynamic vapor sorption (DVS) analysis; assay type: physicochemical; conditions: 25° C.; for hygroscopicity: assessment in words
Description: (§1) The hygroscopic characteristics of the sample were tested when the humidity changed from 0% RH to 95% RH, and the dehumidifying characteristics of the sample were tested when the humidity changed from 95% RH to 0% RH. The humidity change in each step size was 5% RH, the equilibrium standard was that the weight change rate within 10 min was less than 0.01%/min, and the longest equilibrium time was 2 hours.
as §1, with “5” for “10”

[3] = Equilibrium solubility and dissolution rate in water, SGF, FaSSIF, FeSSIF; assay type: physicochemical; conditions: for solubility at 0.5 h / solubility at 2 h / solubility at 24 h: 37 °C, thermodynamic from solid; for Solubility: 37° C.
Description: To further study whether the equilibrium solubility and dissolution rate of crystal forms A, B and C are different in pure water and physiological related media in vivo, the equilibrium solubility and dissolution rate of […] crystal forms in water, simulated gastric fluid (SGF), fasted-state simulated intestinal fluid (FaSSIF) and fed state simulated intestinal fluid (FeSSIF) were tested respectively.

[4] = Solid-state stability: content and related substances by HPLC; assay type: physicochemical
Description: (§2) The samples of crystal forms A, B, and C were weighed and added to a 20 mL colorless transparent glass bottle, respectively, and the sample bottles were respectively placed under the corresponding influencing factors and acceleration conditions (the sample bottles under humidity conditions were sealed with tin foil and placed with holes, and the other samples were covered tightly and placed), taken out after being placed for 1 week and 2 weeks respectively, and the sample content and related substances under various conditions were detected by HPLC; according to the same method as above, samples were respectively weighed and placed under a corresponding influencing factor and accelerated condition, and were taken out after being placed for 2 weeks for observing the appearance and XRPD characterization of each sample, and the physical stability of each crystal form was examined, and the test methods are detailed in table 14 and table 15; at the same time, 2 samples of the crystal forms A, B, and C of the compound as shown in formula I were respectively weighed accurately into 20 mL colorless transparent glass bottles and covered tightly, placed in a −20° C. refrigerator, and taken out as a standard for HPLC analysis at 2 weeks, and the test results are detailed in table 16 and table 17.

[5] = Solid-state stability: appearance and crystal form (XRPD); assay type: physicochemical; conditions: for physical stability: four storage conditions
Description: as §2

[6] = Acceleration (40° C./75% RH), 1 week
[7] = Acceleration (40° C./75% RH), 2 weeks
[8] = High humidity (92.5% RH), 1 week
[9] = High humidity (92.5% RH), 2 weeks
[10] = High temperature (60° C.), 1 week
[11] = High temperature (60° C.), 2 weeks
[12] = illumination (4500 LuX), 1 week
[13] = illumination (4500 LuX), 2 weeks
[14] = Illumination (4500 Lux), 2 weeks
[15] = high temperature, high humidity, illumination and acceleration, 2 weeks (conclusion)

Chain of PD-1 and PD-L1 (Q9NZQ7 19-238 limits assumed): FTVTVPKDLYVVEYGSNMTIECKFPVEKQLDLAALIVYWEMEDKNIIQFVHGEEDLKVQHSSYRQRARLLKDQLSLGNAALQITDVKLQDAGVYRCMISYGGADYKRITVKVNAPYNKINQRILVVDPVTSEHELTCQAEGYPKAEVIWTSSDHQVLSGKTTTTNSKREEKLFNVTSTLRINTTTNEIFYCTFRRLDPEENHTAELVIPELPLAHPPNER

SMILES: Cc1c(/C=C/c2cc(CN[C@@](C)(CO)C(=O)O)ccc2C(F)(F)F)cccc1-c1ccccc1 [Compound I]
- inhibitory effect on the combination of PD-1 and PD-L1 [1]: strong inhibitory effect

- hygroscopic weight gain ([2]; 80% RH): 0.310%
- hygroscopic weight gain ([2]; 95% RH): 0.409%
- hygroscopicity [2]: slightly hygroscopic
- solubility at 0.5 h ([3]; FaSSIF as printed (second set of rows), fessif, FaSSIF, 0.5 hours): 183 µg/mL (≈ 389 µM)
- solubility at 2 h ([3]; FaSSIF as printed (second set of rows), fessif, FaSSIF, 2 hours): 177 µg/mL (≈ 376 µM)
- solubility at 24 h ([3]; FaSSIF as printed (second set of rows), fessif, FaSSIF, 24 hours): 170 µg/mL (≈ 363 µM)
- Solubility ([3]; FaSSIF, 2 hours): 2.0 µg/mL (≈ 4.26 µM)
- Solubility ([3]; SGF, 0.5 hours): 0.4 µg/mL (≈ 0.852 µM)
- Solubility ([3]; SGF, 2 hours): 0.3 µg/mL (≈ 0.639 µM)
- Solubility ([3]; SGF, 24 hours): 0.1 µg/mL (≈ 0.213 µM)
- Solubility ([3]; Water, 24 hours): 6.1 µg/mL (≈ 13 µM)
- solubility at 0.5 h ([3]; fasted-state simulated intestinal fluid (FaSSIF), fassif, 0.5 hours): 8.7 µg/mL (≈ 18.5 µM)
- solubility at 24 h ([3]; fasted-state simulated intestinal fluid (FaSSIF), fassif, 24 hours): 4.3 µg/mL (≈ 9.16 µM)
- solubility at 0.5 h ([3]; water, 0.5 hours): 1.5 µg/mL (≈ 3.19 µM)
- solubility at 2 h ([3]; water, 2 hours): 6 µg/mL (≈ 12.8 µM)
- Content [4, 6]: 104.34%
- Total related substances [4, 6]: 0.04%
- Content [4, 7]: 104.13%
- Total related substances [4, 7]: 0.03%
- Total related substances ([4]; Control, −20° C., 2 weeks): 0.00%
- Content [4, 8]: 104.75%
- Total related substances [4, 8]: 0.10%
- Content [4, 9]: 104.25%
- Total related substances [4, 9]: 0.12%
- Content [4, 10]: 100.69%
- Total related substances [4, 10]: 0.02%
- Content [4, 11]: 104.03%
- Total related substances [4, 11]: 0.03%
- Content [4, 12]: 96.10%
- Total related substances [4, 12]: 3.94%
- Content [4, 13]: 88.50%
- Total related substances [4, 13]: 11.18%
- Appearance [5, 7]: Off-white
- Crystal form (XRPD) after storage [5, 7]: Crystal form A
- Appearance ([5]; Control, −20° C., 2 weeks): Off-white
- Crystal form (XRPD) after storage ([5]; Control, −20° C., 2 weeks, listed as Crystal form A-Control): Crystal form A
- Appearance [5, 9]: Off-white
- Crystal form (XRPD) after storage [5, 9]: Crystal form A
- Appearance [5, 11]: Off-white
- Crystal form (XRPD) after storage [5, 11]: Crystal form A
- Appearance [5, 14]: Off-white
- Crystal form (XRPD) after storage [5, 14]: Crystal form A
- physical stability ([5]; 2 weeks (conclusion)): good
- Appearance [5, 15]: off-white
SMILES: Cc1c(/C=C/c2cc(CN[C@@](C)(CO)C(=O)O)ccc2C(F)(F)F)cccc1-c1ccccc1 [Crystal form A]

- hygroscopicity [2]: hygroscopic
- weight gain ([2]; from 0% RH to 95% RH): 7.235%
- Solubility ([3]; FaSSIF (rows r12-r14), 0.5 hours, listed as B): 13.3 µg/mL (≈ 28.3 µM)
- Solubility ([3]; FaSSIF (rows r12-r14), 2 hours, listed as B): 8.8 µg/mL (≈ 18.7 µM)
- Solubility ([3]; FaSSIF (rows r12-r14), 24 hours, listed as B): 8.6 µg/mL (≈ 18.3 µM)
- Solubility ([3]; FaSSIF as printed (second set, rows r15-r17), 0.5 hours, listed as B): 176.4 µg/mL (≈ 376 µM)
- Solubility ([3]; FaSSIF as printed (second set, rows r15-r17), 2 hours, listed as B): 175.9 µg/mL (≈ 375 µM)
- Solubility ([3]; FaSSIF as printed (second set, rows r15-r17), 24 hours, listed as B): 179.7 µg/mL (≈ 383 µM)
- Solubility ([3]; SGF, 2 hours): 0.1 µg/mL (≈ 0.213 µM)
- Solubility ([3]; SGF, 24 hours): 0.2 µg/mL (≈ 0.426 µM)
- Solubility ([3]; Water, 0.5 hours): 2.5 µg/mL (≈ 5.32 µM)
- Solubility ([3]; Water, 2 hours): 7.5 µg/mL (≈ 16 µM)
- Solubility ([3]; Water, 24 hours): 1.2 µg/mL (≈ 2.56 µM)
- solubility at 0.5 h ([3]; simulated gastric fluid (SGF), simulated gastric fluid, SGF, 0.5 hours): 0.5 µg/mL (≈ 1.06 µM)
- Content [4, 6]: 103.22%
- Total related substances [4, 6]: 0.00%
- Content [4, 7]: 101.60%
- Total related substances [4, 7]: 0.00%
- Total related substances ([4]; Control, −20° C., 2 weeks): 0.00%
- Content [4, 8]: 100.09%
- Total related substances [4, 8]: 0.00%
- Content [4, 9]: 100.83%
- Total related substances [4, 9]: 0.00%
- Content [4, 10]: 100.70%
- Total related substances [4, 10]: 0.00%
- Content [4, 11]: 100.15%
- Total related substances [4, 11]: 0.00%
- Content [4, 12]: 100.02%
- Total related substances [4, 12]: 0.39%
- Content [4, 13]: 99.69%
- Total related substances [4, 13]: 1.28%
- Appearance [5, 7]: Off-white
- Crystal form (XRPD) after storage [5, 7]: Crystal form B
- Appearance ([5]; Control, −20° C., 2 weeks): Off-white
- Crystal form (XRPD) after storage ([5]; Control, −20° C., 2 weeks, listed as Crystal form B-Control): Crystal form B
- Appearance [5, 9]: Off-white
- Crystal form (XRPD) after storage [5, 9]: Crystal form B
- Appearance [5, 11]: Off-white
- Crystal form (XRPD) after storage [5, 11]: Mixed crystal form
- Crystal form (XRPD) after storage ([5]; High temperature (60° C.), 2 weeks, listed as crystal form B): converted into other crystal form
- Appearance [5, 14]: Off-white
- Crystal form (XRPD) after storage [5, 14]: Crystal form B
- physical stability ([5]; 2 weeks (conclusion)): poor
- Appearance [5, 15]: off-white
SMILES: Cc1c(/C=C/c2cc(CN[C@@](C)(CO)C(=O)O)ccc2C(F)(F)F)cccc1-c1ccccc1 [Crystal form B]

Reference: patent US12428369B2, “Crystal form of aromatic vinyl derivatives, and preparation method therefor and use thereof” (GUANGZHOU MAXINOVEL PHARMACEUTICALS CO., LTD., priority 2020, dated 2025)
